Here are results for 22 compounds from ChEMBL document CHEMBL1147527, “Parallel synthesis of DAPT derivatives and their gamma-secretase-inhibitory activity” (Bioorg Med Chem Lett, 2004).

The source made the active and inactive calls. The rule behind the calls is not given here.

In experiment [1] the target is Gamma-secretase (Homo sapiens) (UniProt Q96BI3+Q9NZ42+Q8WW43+P49768+Q92542+P49810). The experiment is described as follows: (§1) Inhibitory activity against gamma-secretase relative to DAPT. The class given is protein-complex assay.
In experiment [2] the target is T1, Gamma-secretase subunit PEN-2 (Homo sapiens, UniProt Q9NZ42). The experiment is described as follows: Inhibitory activity against gamma-secretase at concentration of 10 uM; not active.
The target in experiment [3] is T1, Gamma-secretase subunit PEN-2. Described as §1.
Experiment [4] has the same target. The experiment can be described thus: Inhibitory activity against gamma-secretase.

T1 sequence (Q9NZ42 whole entry): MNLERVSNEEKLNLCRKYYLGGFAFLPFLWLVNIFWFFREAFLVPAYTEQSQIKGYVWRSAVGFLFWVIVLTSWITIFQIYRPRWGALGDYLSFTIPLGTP

Take `C[C@H](NC(=O)Cc1cc(F)cc(F)c1)C(=O)N[C@@H](Cc1ccccc1)C(=O)NCc1ccc(C(=O)c2ccccc2)cc1`: the Relative activity in experiment [1] amounted to 30.
For `C[C@H](NC(=O)Cc1ccc(O)cc1)C(=O)N[C@@H](Cc1ccccc1)C(=O)OC(C)(C)C`, in experiment [2], the outcome was inactive.
The same measure, in the same setting: as for `C[C@H](NC(=O)Cc1ccc(Br)cc1)C(=O)N[C@@H](Cc1ccccc1)C(=O)OC(C)(C)C`, the entry is “inactive”.
In experiment [1], `C[C@H](NC(=O)Cc1cc(F)cc(F)c1)C(=O)N[C@@H](Cc1ccccc1)C(=O)NCc1ccc(Cl)cc1` returned a Relative activity of 0.6.
`C[C@H](NC(=O)Cc1cc(F)cc(F)c1)C(=O)N[C@@H](Cc1ccccc1)C(=O)NCc1ccccc1` showed a Relative activity in experiment [3] of 1.
Compound `COC(=O)c1ccc(CNC(=O)[C@H](Cc2ccccc2)NC(=O)[C@H](C)NC(=O)Cc2cc(F)cc(F)c2)cc1` came in with a Relative activity in experiment [1] of 0.6.
The same measure, in the same setting: as for `C[C@H](NC(=O)Cc1cc(F)cc(F)c1)C(=O)N[C@@H](Cc1ccccc1)C(=O)NCc1cccc(Cl)c1`, the figure is 0.1; as for `C[C@H](NC(=O)Cc1cc(F)cc(F)c1)C(=O)N[C@@H](Cc1ccccc1)C(=O)NCc1ccccc1Cl`, 0.1.
For `C[C@H](NC(=O)Cc1ccccc1O)C(=O)N[C@@H](Cc1ccccc1)C(=O)OC(C)(C)C`, the outcome in experiment [2] was inactive.
`COc1cccc(CNC(=O)[C@H](Cc2ccccc2)NC(=O)[C@H](C)NC(=O)Cc2cc(F)cc(F)c2)c1` gave a Relative activity in experiment [1] of 0.1.
For the compound `C[C@H](NC(=O)Cc1cccc(O)c1)C(=O)N[C@@H](Cc1ccccc1)C(=O)OC(C)(C)C`, the outcome in experiment [2] was inactive.
As for `C[C@H](NC(=O)Cc1cc(F)cc(F)c1)C(=O)N[C@@H](Cc1ccccc1)C(=O)NCc1ccc(F)cc1`, in experiment [1], the Relative activity came to 0.1.
Same read-out and setting: as for `C[C@H](NC(=O)Cc1cc(F)cc(F)c1)C(=O)N[C@@H](Cc1ccccc1)C(=O)NCc1cccc(Br)c1`, the figure is 0.1.
Take `CCCCNC(=O)[C@H](Cc1ccccc1)NC(=O)[C@H](C)NC(=O)Cc1cc(F)cc(F)c1`: the Relative activity in experiment [3] stood at 0.3.
Same read-out and setting: then `C[C@H](NC(=O)Cc1cc(F)cc(F)c1)C(=O)N[C@@H](Cc1ccccc1)C(=O)NC(c1ccccc1)c1ccccc1`, with 1.
For the compound `C[C@H](NC(=O)Cc1cc(F)cc(F)c1)C(=O)N[C@@H](Cc1ccccc1)C(=O)OC(C)(C)C`, the Relative activity in experiment [3] came to 1. The compound further showed an IC50 in experiment [4] of 0.05 µM.
On to `C[C@H](NC(=O)Cc1ccccc1Br)C(=O)N[C@@H](Cc1ccccc1)C(=O)OC(C)(C)C`, for which, in experiment [2], the result was inactive.
The compound `C[C@H](NC(=O)Cc1cc(F)cc(F)c1)C(=O)N[C@@H](Cc1ccccc1)C(=O)NCc1ccc(Br)cc1` came in with a Relative activity in experiment [1] of 0.6.
For the compound `COc1ccccc1CNC(=O)[C@H](Cc1ccccc1)NC(=O)[C@H](C)NC(=O)Cc1cc(F)cc(F)c1`, the Relative activity in experiment [1] stood at 0.2.
Turning to `C[C@H](NC(=O)Cc1cccc(Br)c1)C(=O)N[C@@H](Cc1ccccc1)C(=O)OC(C)(C)C`, the outcome in experiment [2] was inactive.
Regarding `C[C@H](NC(=O)Cc1cc(F)cc(F)c1)C(=O)N[C@@H](Cc1ccccc1)C(=O)NCc1ccccc1Br`, the Relative activity in experiment [1] came out at 0.3.
`COc1ccc(CNC(=O)[C@H](Cc2ccccc2)NC(=O)[C@H](C)NC(=O)Cc2cc(F)cc(F)c2)cc1`: the Relative activity in experiment [1] was found to be 0.4.
